The source of these data is patent US20040127569A1, “Methods for treatment and prevention of gastrointestinal conditions” (priority 2002, published 2004).

Where a name gives a salt, the structure may show the parent alone. Read-outs that look alike come from different tables or passages of the source.

The target in one data set is i-NOS (Homo sapiens, UniProt P35228). The data set is described as follows: i-NOS inhibition, comparison with NIL amides. In kind it is biochemical.
Data set [1] has as its system LPS-induced increase in plasma nitrite/nitrate levels. The data set is described as follows: In vivo assay: endotoxin-treated rats, plasma nitrite/nitrate. More on the design: species or system rat. To be noted: oral administration, plasma nitrite/nitrate 5 hours post-treatment. On the procedure: Plasma nitrite/nitrate levels can be determined 5 hours post-treatment.

In a further data set the test system is Human Cartilage. The data set is described as follows: Human cartilage explant assay (nitrite production, IL-1β induced). In kind it is cell-based. To be noted: inhibition of nitrite production, IL-1β stimulated explants. On the procedure: Human Cartilage Explant Assay
Bone pieces are rinsed twice with Dulbecco's Phosphate Buffered Saline (GibcoBRL) and once with Dulbecco's Modified Eagles Medium (GibcoBRL) and placed into a petri dish with phenol red free Minimum Essential Medium (MEM) (GibcoBRL). Cartilage was cut into small explants of approximately 15-45 mg in weight and one or two explants per well are placed into either 96 or 48 well culture plates with 200-500 μL of culture media per well. The culture media was either a custom modification of Minimum Essential Medium(Eagle) with Earle's salts (GibcoBRL) prepared without L-Arginine, without L-Glutamine and without phenol red or a custom modification of serumless Neuman and Tytell (GibcoBRL) medium prepared without L-arginine, without insulin, without ascorbic acid, without L-glutamine and without phenol red. Both are supplemented before use with 100 μM L-Arginine (Sigma), 2 mM L-glutamine, 1×HL-1 supplement (BioWhittaker), […] ascorbic acid (Sigma) and 150 pg/ml recombinant human IL-1β (RD Systems) to induce nitric oxide synthase. Compounds are then added in 10 μL aliquots and the explants incubated at 37° C. with 5% CO2 for 18-24 hours. The day old supernatant is then discarded and replaced with fresh culture media containing recombinant human IL-1β and compound and incubated for another 20-24 hours. […] All samples are done in quadruplicate. Unstimulated controls are cultured in media in the absence of recombinant human IL-1β. IC50 values (Table I) are determined from plotting the percent inhibition of nitrite production at six different concentrations of inhibitor.

The target in a further data set is T1, hiNOS (Homo sapiens, UniProt P35228).
T1 construct: made in house; host or cells: Sf9 insect cells (baculovirus vector)
The data set is described as follows: Assay for time dependent inhibition, hiNOS. The class given is biochemical. The following applies: 60 min preincubation. The method, then: Assay for Time Dependent Inhibition
Aliquots (10 μL) are removed at 0, 10, 21 and 60 minutes and immediately added to a citrulline assay enzyme reaction mixture containing L-[2,3-^3H]-arginine and a final L-arginine concentration of 30 μM in a final volume of 100 μL. The reaction is allowed to proceed for 15 minutes at 37° C. and terminated by addition of stop buffer and chromatography with Dowex 50W X-8 cation exchange ion exchange resin as described for the citrulline NOS assay. The % inhibition of NOS activity by an inhibitor was taken as the percent inhibition in activity compared to control enzyme preincubated for the same time in the absence of inhibitor.

[2] abbreviates: Rattus norvegicus, read-out: ED50.

Chain of i-NOS (P35228 whole entry): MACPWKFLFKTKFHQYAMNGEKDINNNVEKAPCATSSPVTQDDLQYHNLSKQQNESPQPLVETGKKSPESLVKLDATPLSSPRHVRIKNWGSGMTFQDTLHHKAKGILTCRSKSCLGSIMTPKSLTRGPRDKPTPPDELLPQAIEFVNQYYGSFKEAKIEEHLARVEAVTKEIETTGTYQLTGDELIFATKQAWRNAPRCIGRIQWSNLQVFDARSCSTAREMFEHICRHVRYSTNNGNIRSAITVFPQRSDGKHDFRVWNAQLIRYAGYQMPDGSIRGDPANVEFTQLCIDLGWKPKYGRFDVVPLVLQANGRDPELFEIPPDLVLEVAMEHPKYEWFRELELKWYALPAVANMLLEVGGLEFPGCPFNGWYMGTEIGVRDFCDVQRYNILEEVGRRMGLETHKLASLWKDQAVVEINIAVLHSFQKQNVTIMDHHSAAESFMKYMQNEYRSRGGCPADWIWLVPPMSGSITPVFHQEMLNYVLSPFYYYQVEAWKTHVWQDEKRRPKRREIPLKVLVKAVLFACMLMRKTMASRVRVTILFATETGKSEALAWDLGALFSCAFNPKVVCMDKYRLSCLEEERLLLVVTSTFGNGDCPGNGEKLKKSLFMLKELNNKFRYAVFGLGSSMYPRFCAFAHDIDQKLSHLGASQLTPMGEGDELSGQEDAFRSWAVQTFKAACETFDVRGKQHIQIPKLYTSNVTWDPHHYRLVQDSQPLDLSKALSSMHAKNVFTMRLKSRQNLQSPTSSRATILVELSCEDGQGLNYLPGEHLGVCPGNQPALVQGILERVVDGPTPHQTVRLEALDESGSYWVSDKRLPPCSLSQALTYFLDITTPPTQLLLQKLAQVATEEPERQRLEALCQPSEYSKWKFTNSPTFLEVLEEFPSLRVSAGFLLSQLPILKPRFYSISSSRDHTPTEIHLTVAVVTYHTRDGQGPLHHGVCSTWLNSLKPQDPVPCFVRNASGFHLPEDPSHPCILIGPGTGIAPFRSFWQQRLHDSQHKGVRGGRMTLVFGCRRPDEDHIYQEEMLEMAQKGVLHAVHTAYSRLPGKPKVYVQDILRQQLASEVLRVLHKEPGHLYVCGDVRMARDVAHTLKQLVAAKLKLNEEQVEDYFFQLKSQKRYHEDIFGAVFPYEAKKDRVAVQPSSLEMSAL

As to “2S-amino-6-[(1-iminoethyl)amino]-N-(1H-tetrazol-5-yl)hexanamide, hydrate, dihydrochloride [Example 1]”, the “i-NOS selectivity relative to NIL amide or NIL dimethylamide” value on i-NOS (compared with NIL amide or NIL dimethylamide) was “more selective”. In general, melting point refers to the temperature, or range, at which the solid turns liquid. The ED50 is the dose that gives a 50% effect, or the effect in half of the subjects. The compound `CC(=NO)NC/C(F)=C\CC[C@H](N)C(=O)O` [Example G, (2S,5E)-2-amino-6-fluoro-7-[(1-hydroximinoethyl)amino]-5-heptenoic acid] had a melting point of 198 to 200 °C. Moreover, in data set [1] (setting [2]), the ED50 was < 0.1 mg/kg.

What is called IC50 is the concentration at which inhibition is half-maximal. Read a low IC50 as higher potency. For `N=C1CCCC[C@H](CCCC[C@H](N)C(=O)O)N1` [Example X, (αS,2S)-α-aminohexahydro-7-imino-1H-azepine-2-hexanoic acid, trihydrate hydrochloride], the IC50 with Human Cartilage is < 10000 nM.

`COC[C@](N)(CSCCNC(C)=N)C(=O)O` [Example J, 2-[[[2-[(1-Iminoethyl)amino]ethyl]thio]methyl]-O-methyl-D-serine, dihydrochloride] yielded an IC50 with Human Cartilage of 8200 nM. In other words, the single-digit micromolar range. As to `CC(=N)NC/C(F)=C\CC[C@H](N)C(=O)Nc1nnn[nH]1` [Example H, (2S,5E)-2-amino-6-fluoro-7-[(1-iminoethyl)amino]-N-(1H-tetrazol-5-yl) 5-heptenamide, dihydrochloride], the median effective dose (ED50) in data set [1] (setting [2]) is < 0.3 mg/kg.

Turning to `CC(=N)NC/C(F)=C/CC[C@H](N)C(=O)O` [Example D, (2S,5Z)-2-amino-6-fluoro-7-[(1-iminoethyl)amino]-5-heptenoic acid, trihydrochloride, dihydrate], in the data set on Human Cartilage (Homo sapiens), the IC50 was 2500 nM. Besides, in data set [1] (setting [2]), the ED50 is > 10 mg/kg. Consider `CC(=N)NCCCC[C@H](N)C(=O)Nc1nnn[nH]1` [Example NN, 2S-amino-6-[(1-iminoethyl)amino]-N-(1H-tetrazol-5-yl)hexanamide, hydrate, dihydrochloride], for which the “i-NOS inhibitor potency relative to NIL amide or NIL dimethylamide” value on i-NOS (compared with 2S-amino-6-[(1-iminoethyl)amino]hexanamide (NIL amide) or NIL dimethylamide) was “more potent”.

The term inhibition denotes the drop in the measured response relative to a control, in per cent. Higher therefore signals strong suppression. As to `N=C1CCCC[C@H](CCCC[C@H](N)C(=O)O)N1` [Example Z, (αS,2S)-α-aminohexahydro-7-imino-1H-azepine-2-hexanoic acid, trihydrate hydrochloride], the IC50 in the data set on Human Cartilage (Homo sapiens) is < 10000 nM. Testing at 22 µM against hiNOS gave an inhibition of 85%.

In turn, `CC(=N)NC/C(F)=C\CC[C@](C)(N)C(=O)O.Cl.Cl` [Example HH, (2S,5E)-2-amino-2-methyl-6-fluoro-7-[(1-iminoethyl)amino]-5-heptenoic acid, dihydrochloride] showed an IC50 with Human Cartilage (Homo sapiens) of 400 nM. Besides, in data set [1] (setting [2]), the ED50 was 0.4 mg/kg. Turning to `CC(=N)NCC(F)=CCC[C@H](N)C(=O)O` (mixture of isomers) [Example B, (2S,5E/Z)-2-amino-6-fluoro-7-[(1-iminoethyl)amino]-5-heptenoic acid, dihydrochloride], in the data set on Human Cartilage (Homo sapiens), the IC50 worked out at 200 nM.

`Cl.N=C1CCCC[C@@H](CCCC[C@H](N)C(=O)O)N1.O.O.O` [Example W, (αS,2R)-α-aminohexahydro-7-imino-1H-azepine-2-hexanoic acid, trihydrate hydrochloride]: in the data set on Human Cartilage (Homo sapiens), the 50% inhibitory concentration (IC50) is > 30000 nM. Moreover, in data set [1] (setting [2]), the ED50 was > 10 mg/kg.

As to `Cl.N=C1CCCC[C@H](CCCC[C@@H](N)C(=O)O)N1.O.O.O` [Example V, (αR,2S)-α-aminohexahydro-7-imino-1H-azepine-2-hexanoic acid, trihydrate hydrochloride], the half-maximal inhibitory concentration (IC50) with Human Cartilage (Homo sapiens) is < 10000 nM. Moreover, in data set [1] (setting [2]), the ED50 was < 3 mg/kg. For `CC(=N)NC/C=C\CC[C@](C)(N)C(=O)O` [Example LL, (2S,5Z)-7-acetimidoylamino-2-amino-2-methyl-hept-5-enoic acid], in that order: 800 nM and 0.3 mg/kg. For the compound `CC(=N)NC/C(F)=C\CC[C@H](N)C(=O)O` [Example A, (2S,5E)-2-amino-6-fluoro-7-[(1-iminoethyl)amino]-5-heptenoic acid, dihydrochloride, monohydrate], 100 nM corresponded to half-maximal inhibition with Human Cartilage (Homo sapiens) (IC50). Also, the ED50 in data set [1] (setting [2]) was < 0.1 mg/kg; in data set [1] (dihydrochloride, monohydrate), <0.1 mg/kg.
